We go through 9 compounds from article PMC6150381, “Design, Synthesis, and Biological Evaluation of N,N-Disubstituted-4-arylthiazole-2-methylamine Derivatives as Cholesteryl Ester Transfer Inhibitors” (Molecules : A Journal of Synthetic Chemistry and Natural …, 2017).

Details of data set [1]: method as in PMID 26047975. Conditions: phase II clinical trials; ref [18]; cited from earlier work.
For data set [2], the target named is T1, recombinant CETP (Homo sapiens, UniProt P11597).
T1 construct: purchased Roar, New York, NY, USA RB-RPAK
T1 sequence (P11597 18-493): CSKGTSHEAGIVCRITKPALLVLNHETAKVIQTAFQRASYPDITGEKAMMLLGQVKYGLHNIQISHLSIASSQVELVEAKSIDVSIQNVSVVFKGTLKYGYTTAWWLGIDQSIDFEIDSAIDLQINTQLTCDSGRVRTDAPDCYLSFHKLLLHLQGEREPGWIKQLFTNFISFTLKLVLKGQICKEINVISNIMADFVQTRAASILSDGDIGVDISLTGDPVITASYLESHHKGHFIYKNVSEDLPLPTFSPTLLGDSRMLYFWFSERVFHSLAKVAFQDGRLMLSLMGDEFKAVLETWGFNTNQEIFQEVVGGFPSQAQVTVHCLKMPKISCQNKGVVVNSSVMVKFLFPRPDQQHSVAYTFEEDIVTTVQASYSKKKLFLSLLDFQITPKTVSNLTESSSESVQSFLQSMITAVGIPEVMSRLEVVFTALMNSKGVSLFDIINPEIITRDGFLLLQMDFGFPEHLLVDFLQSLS
The arrangement: method as in previous work. Conditions: in Figure 2; ref previous work; cited from earlier work.

Data set [3] can be described thus: In vitro metabolic stability study, rat liver microsomes. It counts as in vitro ADME. Particulars: for Remaining (NCF = 60 min) / Remaining (T = 60 min): rat liver microsome; for Remaining (NCF = 60 min): no co-factor (no NADPH regenerating system); for Remaining (T = 60 min): with NADPH regenerating system; for microsomal CLint at 10 µM: rat, liver microsomes, read-out: CL (clearance rate). Here is the method:
(§1) Ten microliters (10 μL, 100 μM/L) of compounds and 80 μL of liver microsomes were mixed and incubated at 37 °C for 10 min, and then 10 μL of NADPH regenerating system was added. Samples were obtained at 0 min, 5 min, 10 min, 20 min, 30 min and 60 min. respectively, and 300 μL stop solution (cold in 4 °C, including 100 ng/mL tolbutamide and 100 ng/mL labetalol) was added to terminate the reaction. After oscillating for 10 min, the plates were centrifuged (4000 rpm) at room temperature for 20 min, and the supernatants were used for analysis.
On the technique in general: Liver microsomes are vesicles of endoplasmic reticulum, rich in cytochrome P450 enzymes.

A short description of data set [4]: In vitro metabolic stability study, human liver microsomes. It counts as in vitro ADME. Conditions: for Remaining (T = 60 min): human liver microsome, with NADPH regenerating system; for microsomal CLint at 10 µM: human, liver microsomes, read-out: CL (clearance rate). Here is the method:
as §1

Experiment in data set [5]: as above
It counts as in vitro ADME. Particulars: human liver microsome, no co-factor (no NADPH regenerating system).

Data set [6] has as its target T1, recombinant CETP. The experiment in a line: In vitro CETP inhibitory assay (BODIPY-CE fluorescence assay, CETP RP Activity Assay Kit). It counts as biochemical. Conditions: CETP inhibition, eight-point titration, each concentration tested three times. Here is the method: The IC50 was determined from a curve fit of the data with each concentration tested three times.

For data set [7] the following is noted: ref [12],[13],[14], cited from earlier work.

Where two headings read alike, the source gives them in different places.

Regarding `CCOC(=O)N1c2ccc(C(F)(F)F)cc2[C@@H](N(Cc2cc(C(F)(F)F)cc(C(F)(F)F)c2)c2ncc(OCCCC(=O)O)cn2)C[C@H]1CC` [AMG-899], in data set [1], the “increased HDL-C levels” value is recorded as 179.1% and the “reduced LDL-C levels” value is on record as 45.3%.
Regarding `O=C(CCN(Cc1ccc(F)cc1)c1cccc(Oc2ccccc2)c1)Nc1ccccc1` [Compound 5], on recombinant CETP [2], the concentration for half-maximal inhibition (IC50) was 24.8 µM.
`COc1ccc(N(Cc2ccc(F)cc2)Cc2nc(-c3ccc([N+](=O)[O-])cc3)cs2)cc1OC` [Compound 30, N-(4-Fluorobenzyl)-3,4-dimethoxy-N-((4-(4-nitrophenyl)thiazol-2-yl)methyl)aniline]: the melting point lay within 111 to 112.8 °C. Besides, in data set [3], the “Remaining (NCF = 60 min)” value came to 90.5%, the “Remaining (T = 60 min)” value is 3.2% and the microsomal CLint at 10 µM was 122 µL/min/mg. For the same compound, the “metabolic stability (in words)” value in data set [4] (human and rat liver microsomes) is “weak human/rat liver microsome stability”. Further, in data set [4], the “Remaining (T = 60 min)” value is given as 22.9% and the microsomal CLint at 10 µM worked out at 48.1 µL/min/mg. For the same compound, the “Remaining (NCF = 60 min)” value in data set [5] was 68.0%. The IC50 at recombinant CETP [6] was found to be 0.79 ± 0.02 µM.
`COc1ccc(N(Cc2ccc(F)cc2)Cc2nc(-c3ccc(C(F)(F)F)cc3)cs2)cc1OC` [Compound 32, N-(4-Fluorobenzyl)-3,4-dimethoxy-N-((4-(4-(trifluoromethyl)phenyl)thiazol-2-yl)methyl)aniline] displayed a melting point of 88.7 to 89.5 °C. For the same compound, in data set [3], the “Remaining (NCF = 60 min)” value was found to be 101.3%, the “Remaining (T = 60 min)” value was found to be 10.1% and the microsomal CLint at 10 µM was found to be 79.3 µL/min/mg. For the same compound, in data set [4], the “Remaining (T = 60 min)” value is 39.3% and the microsomal CLint at 10 µM amounted to 29.8 µL/min/mg. Further, the “Remaining (NCF = 60 min)” value in data set [5] was 69.1%. The concentration for half-maximal inhibition (IC50) at recombinant CETP [6] was 0.97 ± 0.01 µM.
In the case of `COc1ccc(N(Cc2ccc(F)cc2)Cc2nc(-c3ccc(NC(=O)C(F)(F)F)cc3)cs2)cc1OC` [Compound 45, N-(4-(2-(((3,4-Dimethoxyphenyl)(4-fluorobenzyl)amino)methyl)thiazol-4-yl)phenyl)-2,2,2-trifluoroacetamide], the melting point lay within 143.6 to 145.8 °C. The IC50 on recombinant CETP [6] was 15.3 ± 0.17 µM.
Take `COc1ccc(N(Cc2ccc(F)cc2)Cc2nc(-c3ccc(NC(C)=O)cc3)cs2)cc1OC` [Compound 46, N-(4-(2-(((3,4-Dimethoxyphenyl)(4-fluorobenzyl)amino)methyl)thiazol-4-yl)phenyl)acetamide]: the melting point was 134.6 to 137 °C. The IC50 at recombinant CETP [6] is above 50 µM.
On to `COC(=O)CNc1ccc(-c2csc(CN(Cc3ccc(F)cc3)c3ccc(OC)c(OC)c3)n2)cc1` [Compound 47, Methyl(4-(2-(((3,4-dimethoxyphenyl)(4-fluorobenzyl)amino)methyl)thiazol-4-yl)phenyl)glycinate], for which the melting point fell in the range of 103.5 to 105.4 °C. The 50% inhibitory concentration (IC50) on recombinant CETP [6] was 3.54 ± 0.03 µM.
The like results for `COc1ccc(N(Cc2ccc(F)cc2)Cc2nc(-c3ccc(N4CCOCC4)cc3)cs2)cc1OC` [Compound 49, N-(4-Fluorobenzyl)-3,4-dimethoxy-N-((4-(4-morpholinophenyl)thiazol-2-yl)methyl)aniline] were, in that order, 139 to 140.4 °C and above 50 µM.
On to `CCOC(=O)N1c2ccc(C(F)(F)F)cc2[C@@H](N(Cc2cc(C(F)(F)F)cc(C(F)(F)F)c2)C(=O)OC)C[C@H]1CC` [torcetrapib], for which the “increase of HDL-C” value in data set [7] (human studies, dose-dependent) is “greater than 100%”. In data set [7] (human studies), the LDL-C decreasing entry is on record as “up to 42%”. Further, in data set [7] (torcetrapib/atorvastatin group compared to the atorvastatin group), the increase in deaths is reported as 58%.

The IC50 is the concentration needed to halve the response being measured. One may read the melting point as the temperature, or range, at which the solid turns liquid.
